Measurements as given in BigSolDB 2.1.

Q: What does the source list for `CC1(N=C(O)c2ccccc2)CCC2CC1C(c1ccccc1)=[NH+]C2(C)C.[O-][Cl+3]([O-])([O-])[O-]` (stereo not given)?
A: solubility (mole fraction) (in 2-ethoxyethanol, 298.15 K): 0.00256; solubility (mole fraction) (in 2-ethoxyethanol, 303.15 K): 0.00297; solubility (mole fraction) (in 2-ethoxyethanol, 308.15 K): 0.00348; solubility (mole fraction) (in 2-ethoxyethanol, 313.15 K): 0.0041; solubility (mole fraction) (in 2-ethoxyethanol, 318.15 K): 0.0048; solubility (mole fraction) (in acetone, 298.15 K): 0.00275; solubility (mole fraction) (in acetone, 303.15 K): 0.00308; solubility (mole fraction) (in acetone, 308.15 K): 0.00363; solubility (mole fraction) (in acetone, 313.15 K): 0.00425; solubility (mole fraction) (in acetone, 318.15 K): 0.00495; solubility (mole fraction) (in acetonitrile, 298.15 K): 0.00307; solubility (mole fraction) (in acetonitrile, 303.15 K): 0.0035; solubility (mole fraction) (in acetonitrile, 308.15 K): 0.00421; solubility (mole fraction) (in acetonitrile, 313.15 K): 0.00488; solubility (mole fraction) (in acetonitrile, 318.15 K): 0.00572; solubility (mole fraction) (in acrylonitrile, 298.15 K): 0.00592; solubility (mole fraction) (in acrylonitrile, 303.15 K): 0.00661; solubility (mole fraction) (in acrylonitrile, 308.15 K): 0.00743; solubility (mole fraction) (in acrylonitrile, 313.15 K): 0.00856; solubility (mole fraction) (in acrylonitrile, 318.15 K): 0.0104; solubility (mole fraction) (in ethanol, 298.15 K): 0.0015; solubility (mole fraction) (in ethanol, 303.15 K): 0.00182; solubility (mole fraction) (in ethanol, 308.15 K): 0.00223; solubility (mole fraction) (in ethanol, 313.15 K): 0.00264; solubility (mole fraction) (in ethanol, 318.15 K): 0.00316; solubility (mole fraction) (in isopropanol, 298.15 K): 0.000845; solubility (mole fraction) (in isopropanol, 303.15 K): 0.00103; solubility (mole fraction) (in isopropanol, 308.15 K): 0.00132; solubility (mole fraction) (in isopropanol, 313.15 K): 0.00163; solubility (mole fraction) (in isopropanol, 318.15 K): 0.00199; solubility (mole fraction) (in methanol, 298.15 K): 0.00289; solubility (mole fraction) (in methanol, 303.15 K): 0.00327; solubility (mole fraction) (in methanol, 308.15 K): 0.0038; solubility (mole fraction) (in methanol, 313.15 K): 0.00445; solubility (mole fraction) (in methanol, 318.15 K): 0.00534; solubility (mole fraction) (in n-butanol, 298.15 K): 0.000928; solubility (mole fraction) (in n-butanol, 303.15 K): 0.00113; solubility (mole fraction) (in n-butanol, 308.15 K): 0.00146; solubility (mole fraction) (in n-butanol, 313.15 K): 0.00178; solubility (mole fraction) (in n-butanol, 318.15 K): 0.00221; solubility (mole fraction) (in n-propanol, 298.15 K): 0.0013; solubility (mole fraction) (in n-propanol, 303.15 K): 0.0016; solubility (mole fraction) (in n-propanol, 308.15 K): 0.00193; solubility (mole fraction) (in n-propanol, 313.15 K): 0.00232; solubility (mole fraction) (in n-propanol, 318.15 K): 0.00288; solubility (mole fraction) (in propionitrile, 298.15 K): 0.00186; solubility (mole fraction) (in propionitrile, 303.15 K): 0.00215; solubility (mole fraction) (in propionitrile, 308.15 K): 0.00254; solubility (mole fraction) (in propionitrile, 313.15 K): 0.00305; solubility (mole fraction) (in propionitrile, 318.15 K): 0.00346; solubility (mole fraction) (in propylene glycol, 298.15 K): 0.0122; solubility (mole fraction) (in propylene glycol, 303.15 K): 0.0132; solubility (mole fraction) (in propylene glycol, 308.15 K): 0.0147; solubility (mole fraction) (in propylene glycol, 313.15 K): 0.0164; solubility (mole fraction) (in propylene glycol, 318.15 K): 0.0187; solubility (mole fraction) (in water, 298.15 K): 3.8e-05; solubility (mole fraction) (in water, 303.15 K): 5.7e-05; solubility (mole fraction) (in water, 308.15 K): 7.7e-05; solubility (mole fraction) (in water, 313.15 K): 9.9e-05; solubility (mole fraction) (in water, 318.15 K): 0.000115

Q: With `CC(=O)NC1(C)CCC2CC1C(C)=NC2(C)C` (stereo not given) as the compound, how does the solubility (mole fraction) (in 2-ethoxyethanol, 298.15 K) read?
A: 0.00185

Q: And the solubility (mole fraction) (in 2-ethoxyethanol, 303.15 K)?
A: 0.00217

Q: And the solubility (mole fraction) (in 2-ethoxyethanol, 308.15 K)?
A: 0.00248

Q: And the solubility (mole fraction) (in 2-ethoxyethanol, 313.15 K)?
A: 0.00282

Q: And the solubility (mole fraction) (in 2-ethoxyethanol, 318.15 K)?
A: 0.00322

Q: What about the solubility (mole fraction) (in acetone, 298.15 K) of the same compound?
A: 0.00359

Q: And the solubility (mole fraction) (in acetone, 303.15 K)?
A: 0.00388

Q: What about the solubility (mole fraction) (in acetone, 308.15 K) of the same compound?
A: 0.00411

Q: What about the solubility (mole fraction) (in acetone, 313.15 K) of the same compound?
A: 0.00445

Q: What about the solubility (mole fraction) (in acetone, 318.15 K) of the same compound?
A: 0.00493

Q: And the solubility (mole fraction) (in acetonitrile, 298.15 K)?
A: 0.0257

Q: What about the solubility (mole fraction) (in acetonitrile, 303.15 K) of the same compound?
A: 0.0265

Q: And the solubility (mole fraction) (in acetonitrile, 308.15 K)?
A: 0.0275

Q: And the solubility (mole fraction) (in acetonitrile, 313.15 K)?
A: 0.0292

Q: And the solubility (mole fraction) (in acetonitrile, 318.15 K)?
A: 0.0305

Q: What about the solubility (mole fraction) (in acrylonitrile, 298.15 K) of the same compound?
A: 0.00442

Q: And the solubility (mole fraction) (in acrylonitrile, 303.15 K)?
A: 0.00458

Q: What about the solubility (mole fraction) (in acrylonitrile, 308.15 K) of the same compound?
A: 0.00487

Q: And the solubility (mole fraction) (in acrylonitrile, 313.15 K)?
A: 0.00528

Q: What about the solubility (mole fraction) (in acrylonitrile, 318.15 K) of the same compound?
A: 0.00581

Q: What about the solubility (mole fraction) (in ethanol, 298.15 K) of the same compound?
A: 0.00153

Q: And the solubility (mole fraction) (in ethanol, 303.15 K)?
A: 0.00184

Q: And the solubility (mole fraction) (in ethanol, 308.15 K)?
A: 0.00211

Q: What about the solubility (mole fraction) (in ethanol, 313.15 K) of the same compound?
A: 0.00244

Q: And the solubility (mole fraction) (in ethanol, 318.15 K)?
A: 0.00284

Q: And the solubility (mole fraction) (in isopropanol, 298.15 K)?
A: 0.00134

Q: What about the solubility (mole fraction) (in isopropanol, 303.15 K) of the same compound?
A: 0.00155

Q: What about the solubility (mole fraction) (in isopropanol, 308.15 K) of the same compound?
A: 0.00182

Q: And the solubility (mole fraction) (in isopropanol, 313.15 K)?
A: 0.00214

Q: What about the solubility (mole fraction) (in isopropanol, 318.15 K) of the same compound?
A: 0.00243

Q: What about the solubility (mole fraction) (in methanol, 298.15 K) of the same compound?
A: 0.00945

Q: What about the solubility (mole fraction) (in methanol, 303.15 K) of the same compound?
A: 0.0103

Q: And the solubility (mole fraction) (in methanol, 308.15 K)?
A: 0.0111

Q: What about the solubility (mole fraction) (in methanol, 313.15 K) of the same compound?
A: 0.0122

Q: What about the solubility (mole fraction) (in methanol, 318.15 K) of the same compound?
A: 0.0142

Q: And the solubility (mole fraction) (in n-butanol, 298.15 K)?
A: 0.00138

Q: And the solubility (mole fraction) (in n-butanol, 303.15 K)?
A: 0.00164

Q: What about the solubility (mole fraction) (in n-butanol, 308.15 K) of the same compound?
A: 0.00191

Q: What about the solubility (mole fraction) (in n-butanol, 313.15 K) of the same compound?
A: 0.00219

Q: What about the solubility (mole fraction) (in n-butanol, 318.15 K) of the same compound?
A: 0.00257

Q: And the solubility (mole fraction) (in n-propanol, 298.15 K)?
A: 0.00144

Q: And the solubility (mole fraction) (in n-propanol, 303.15 K)?
A: 0.00171

Q: What about the solubility (mole fraction) (in n-propanol, 308.15 K) of the same compound?
A: 0.00196

Q: What about the solubility (mole fraction) (in n-propanol, 313.15 K) of the same compound?
A: 0.00228

Q: And the solubility (mole fraction) (in n-propanol, 318.15 K)?
A: 0.00264

Q: And the solubility (mole fraction) (in propionitrile, 298.15 K)?
A: 0.00392

Q: What about the solubility (mole fraction) (in propionitrile, 303.15 K) of the same compound?
A: 0.00416

Q: What about the solubility (mole fraction) (in propionitrile, 308.15 K) of the same compound?
A: 0.0044

Q: And the solubility (mole fraction) (in propionitrile, 313.15 K)?
A: 0.00477

Q: What about the solubility (mole fraction) (in propionitrile, 318.15 K) of the same compound?
A: 0.00526

Q: And the solubility (mole fraction) (in propylene glycol, 298.15 K)?
A: 0.0197

Q: What about the solubility (mole fraction) (in propylene glycol, 303.15 K) of the same compound?
A: 0.0206

Q: What about the solubility (mole fraction) (in propylene glycol, 308.15 K) of the same compound?
A: 0.022

Q: What about the solubility (mole fraction) (in propylene glycol, 313.15 K) of the same compound?
A: 0.0232

Q: What about the solubility (mole fraction) (in propylene glycol, 318.15 K) of the same compound?
A: 0.0251

Q: And the solubility (mole fraction) (in water, 298.15 K)?
A: 0.0012

Q: What about the solubility (mole fraction) (in water, 303.15 K) of the same compound?
A: 0.00142

Q: What about the solubility (mole fraction) (in water, 308.15 K) of the same compound?
A: 0.0016

Q: And the solubility (mole fraction) (in water, 313.15 K)?
A: 0.00182

Q: What about the solubility (mole fraction) (in water, 318.15 K) of the same compound?
A: 0.0021
